The results in this text go back to US9029419B2, “Use of zinc N-acetyltaurinate” (TRI-INOV, priority 2008, dated 2015).

One data set concerns lipofuscin accumulation. The data set can be described thus: Intracellular accumulation of lipofuscin in retina, prostate and hippocampus of aged rats (fluorescence image analysis). The class given is in vivo, Sprague-Dawley albino rats. The note with it: 40 mg/kg per os once a day for 4 weeks, vs control animals (carrier). As for the experimental part:
The activity of ATA-Zn on aging was measured by determining the amount of lipofuscin in certain tissues in aged rats (retina, prostate and hippocampus).
Male Sprague-Dawley albino rats, aged 16 months, were placed in standard plastic cages, in groups of 5, with water and food ad libitum. The living conditions of the animals were the following: day:night light cycle, 12:12 h, constant temperature of 22±2° C. and relative humidity of 60%.
For the chronic treatment, ATA-Zn was administered to the rats, per os, once a day, for 4 weeks, at the dose of 40 mg/kg (n=6). The control animals received only water (carrier) for the same period of time (n=6). 24 hours after the end of the treatment, the rats were anesthetized with equithesin ([…], i.p.) and perfused transcardially with 1% paraformaldehyde and 1.25% glutaraldehyde in a 0.1% sodium cacodylate buffer (pH 7.4) obtained from arsenous anhydride and potassium acetate.
The samples of the tissues taken (retina, prostate and hippocampus) were then cut into small pieces (1 mm^3) on a cryostat and added to a mixture of formaldehyde and glutaraldehyde in a cacodylate buffer for 2 hours. The samples were then mixed with osmium tetroxide, dehydrated in increasing concentrations of acetone and toluene and, finally, embedded into blocks of resin (EPON resin). The pieces of tissues thus processed were examined under an Olympus BX-60 fluorescence microscope.
The fluorescence in all the tissues was quantified using an image analysis system (KS 300; Karl Zeiss). The analysis was carried out by measuring the percentage surface area hidden by the presence of fluorescence and compared with a standard zone of 2000 μm^2 (lipofuscin fluorescence expressed as % surface area relative to the standard zone) using an ×40 objective magnification and a Zeiss Sound Vision digital microscope video camera (total enlargement on the computer screen ×7500). The values measured in the areas with no fluorescence in the pieces of tissues were subtracted, as background noise, from the resulting binary image. […]

Data set [1] is described as follows: Solubility of the prepared product. The data set is classed as physicochemical. As to conditions: white powder.
Data set [2] deals with ARPE-19 cells. The data set can be described thus: Comparative assay No. 2: cytoprotective effect in oxidizing medium (H2O2). The class given is cell-based, human. As to conditions: for protection against oxidative stress (ATP production): then H2O2 700 μM for 24 hours; for effect on the production of ATP by ARPE-19 cells treated and then exposed to H2O2: summary statement.
Procedure: The cells were then subjected, for 24 hours, to treatment with aqueous hydrogen peroxide solution at 700 μM.
The subject of data set [3] is ARPE-19 cells. Put plainly: Assay 3: cytoprotective effect of ATA-Zn on cells subjected to various concentrations of H2O2. As to conditions: 10^−8 M, one and a half hours before exposure to H2O2. The data set is classed as cell-based, human. Here is the method:
(§1) In the assays hereinafter described, the ARPE-19 human retinal pigmented epithelial cell line was used.
(§2) In order to assess the protective role of ATA-Zn with respect to an oxidative stress of the retinal epithelium, the following experimental model was used.
(§3) ARPE-19 cells grown in an appropriate medium [mixture of DMEM [Dulbecco's modified Eagle's medium) and Ham's F12 medium] containing 10% of heat-inactivated fetal calf serum; 2 mM glutamine; 0.1 mM of minimum essential medium; a solution of non-essential amino acids and gentamicin sulfate, in 96-well microplates, were exposed to various concentrations of an aqueous hydrogen peroxide solution (H2O2) being toxic for these cells. The cellular levels of ATP were measured using the commercially available assay which measures ATP production, “ATPLite-M”, manufactured by Perkin Elmer, using a multiplate reader from Perkin Elmer Life Sciences, Boston, Mass. […]
(§4) The protective effect of ATA-Zn was assayed by treating the ARPE-19 cells with ATA-Zn and subsequently exposing them to the aqueous hydrogen peroxide solution. […] The results of these assays are reported in FIGS. 5 to 9, which are graphs showing the ATP production, expressed as a percentage relative to the ATP production by control cells (having received only the carrier) as a function of the concentrations of H2O2, of ATA-Zn or of the comparative substances. […]

The test system of data set [4] is ARPE-19 cells. Put plainly: Comparative assay No. 3: comparison with the known antioxidants DHA, lutein and zeaxanthin. The class given is cell-based, human. As for the experimental part:
as §1
(§5) ARPE-19 cells grown in an appropriate medium [mixture of DMEM [Dulbecco's modified Eagle's medium) and Ham's F12 medium] containing 10% of heat-inactivated fetal calf serum; 2 mM glutamine; 0.1 mM of minimum essential medium; a solution of non-essential amino acids and gentamicin sulfate, in 96-well microplates, were exposed to various concentrations of an aqueous hydrogen peroxide solution (H2O2) being toxic for these cells. The cellular levels of ATP were measured using the commercially available assay which measures ATP production, “ATPLite-M”, manufactured by Perkin Elmer, using a multiplate reader from Perkin Elmer Life Sciences, Boston, Mass. This assay is based on the principle that ATP production is dependent on cell viability and that a decrease or increase in ATP reflects a corresponding alteration in cell viability.
as §4

Data set [5] relates to ARPE-19 cells. Put plainly: Assay 1: effective doses of ATA-Zn and its toxicity, ATP production (ATPLite-M). The data set is classed as cell-based, human. The note with it: 24 hours after addition. As for the experimental part: as §1, §3
The ARPE-19 cells were treated with various concentrations of ATA-Zn (10^−3 to 10^−9 M) dissolved in a carrier consisting of a serum-free culture medium containing 0.01% of DMSO (concentration known not to affect cell viability). The ATP production by the ARPE-19 cells thus treated was determined 24 hours after the addition of ATA-Zn. The ATP production by control cells treated only with the serum-free culture medium containing 0.01% of DMSO (carrier) was also determined.

In data set [6] the test system is ARPE-19 cells. Put plainly: Assay 2: anti-oxidative stress cytoprotective effect, ATP production after H2O2. The class given is cell-based, human. As to conditions: 1.5 hours before H2O2 700 μm. As for the experimental part: as §1, §2, §5
The protective effect of ATA-Zn was assayed by treating the ARPE-19 cells with ATA-Zn and subsequently exposing them to the aqueous hydrogen peroxide solution. Various exposure times and various doses were used. Comparative assays were also carried out. The results of these assays are reported in FIGS. 5 to 9, which are graphs showing the ATP production, expressed as a percentage relative to the ATP production by control cells (having received only the carrier) as a function of the concentrations of H2O2, of ATA-Zn or of the comparative substances.
In this assay, the concentrations of ATA-Zn which induce a significant ATP production via the ARPE-19 cells were used, and then, after 1.5 hours, the cells were subjected to a treatment with H2O2 at the toxic dose of 700 μm.

Data set [7] relates to ARPE-19 cells. Put plainly: Comparative assay No. 1: effective doses of taurine and ZnSO4, ARPE-19 cell proliferation. The data set is classed as cell-based, human. As for the experimental part:
as §1, §5
In this assay, the effect of taurine or of N-acetylated taurine and of zinc sulfate on ARPE-19 cell proliferation was compared.

Read-outs that look alike come from different tables or passages of the source.

As for zinc N-acetyltaurinate [ATA-Zn], the “lipofuscin fluorescence (% surface area) in the hippocampus” value in the data set with lipofuscin accumulation was “significant reduction”. Further, the “lipofuscin fluorescence (% surface area) in the prostate” value in the data set with lipofuscin accumulation is given as “significant reduction”. Further, the “lipofuscin fluorescence (% surface area) in the retina” value with lipofuscin accumulation is on record as “significant reduction”. Moreover, the solubility in ethanol entry in data set [1] was “poorly soluble in ethanol”. Moreover, the solubility in water entry in data set [1] is recorded as “soluble in water”. The “protection against oxidative stress (ATP production)” value with ARPE-19 cells [2] (pretreatment) is “protect the ARPE-19 cells against oxidative stress”; with ARPE-19 cells [6] (10^−7 M), “potentiates the toxic effect of H2O2”; in the data set with ARPE-19 cells [6] (10^−8 M), “capable of protecting the cells against oxidative stress”; in the data set on ARPE-19 cells [6] (10^−9 M), “not effective”. Besides, the “effect on the production of ATP by ARPE-19 cells treated and then exposed to H2O2” value (“effect on the production of ATP” for short) in the data set with ARPE-19 cells [2] is “has an effect”. The “protection against oxidative stress induced by various concentrations of H2O2 (ATP production)” value with ARPE-19 cells [3] is listed as “capable of protecting the ARPE-19 cells against oxidative stress”. The “effect on ATP production compared with DHA, lutein and zeaxanthin” value with ARPE-19 cells [4] is “effect comparable to the known antioxidants”; with ARPE-19 cells [4] (listed as zinc N-acetyltaurinate), “virtually identical to or even greater than”. Moreover, the “ATP production / cell viability (toxicity)” value with ARPE-19 cells [5] (10^−3 M) is recorded as “toxic”. Besides, in the data set with ARPE-19 cells [5] (10^−9 M, 10^−8 M and 10^−7 M), the “ATP production / cell viability” value is reported as “capable of inducing an increase in cell viability”.

As to `O=S(=O)([O-])[O-].[Zn+2]` [zinc sulfate], the “protection against oxidative stress (ATP production)” value is recorded as “not capable of protecting the cells” in the data set on ARPE-19 cells [2] (30 μM pretreatment) and “protective effect which is less than that of ATA-Zn” in the data set on ARPE-19 cells [2] (10^−8 M pretreatment). In the data set on ARPE-19 cells [2], the “effect on the production of ATP” value was “no effect”. In addition, in the data set with ARPE-19 cells [7] (30 μM and 10^−8 M), the “proliferative effect on the ARPE-19 cells” value is on record as “neither zinc sulfate nor taurine at the various concentrations used were capable of inducing a significant proliferative effect”.

On to `NCCS(=O)(=O)O` [taurine], for which, in the data set on ARPE-19 cells [2] (pretreatment), the “protection against oxidative stress (ATP production)” value was “not capable of protecting the cells”. Besides, in the data set on ARPE-19 cells [2], the “effect on the production of ATP” value is “no effect”. Moreover, the “proliferative effect on the ARPE-19 cells” value in the data set on ARPE-19 cells [7] (2 mM and 10^−8 M) was “neither zinc sulfate nor taurine at the various concentrations used were capable of inducing a significant proliferative effect”.
